In patent US11918550B2, “Sensitization of cancer cells to differentiation therapy with mitochondrial uncoupler niclosamide ethanolamine” (The Board of Trustees of the Leland Stanford Junior …, priority 2020, dated 2024):

Key:
Format in all cases: cell-based
SK-N-BE(2) cells [1] = assay: RNA-seq gene expression profiling with GSEA/DAVID analysis and qPCR validation
Method: RNA isolation, reverse transcription, and real-time PCR. The procedure was performed as described before. Briefly, total RNA was isolated from 60 mm tissue culture plates according to the TRIzol Reagent (Invitrogen, 15596026) protocol. 3 μg of total RNA was used in the reverse transcription reaction using the iScript cDNA synthesis kit (Bio-Rad). Quantitative PCR amplification was performed on the Prism 7900 Sequence Detection System (Applied Biosystems) using Taqman Gene Expression Assays (Applied Biosystems). Gene expression level were normalized to 18S rRNA.
RNA Sequencing and bioinformatics analysis. […] The RNA-seq library was constructed and subjected to 150 bp paired-end sequencing on an Illumina sequencing platform (Novogene). RNA-seq analysis was performed using the kallisto and sleuth analytical pipeline. In brief, a transcript index was generated with reference to Ensembl version 67 for hg19. Paired-end mRNA-seq reads were pseudo-aligned using kallisto (v0.42.4) with respect to this transcript index using 100 bootstraps (-b 100) to estimate the variance of estimated transcript abundances. Transcript-level estimates were aggregated to transcripts per million (TPM) estimates for each gene, with gene names assigned from Ensembl using biomaRt. Differential gene expression analysis was performed using the sleuth R package across pairwise groups using Wald tests, with significant hits called with a sleuth q-value<0.05 and log 2(fold change) >0.693 or <−0.693. […] All the annotated transcripts (˜21,427 features in total) with expression values were uploaded to a locally-installed GSEA tool (version 4.1.0) and compared against the H: hallmark gene sets (50 gene sets).
To generate the favorable or unfavorable prognosis gene sets, Kaplan-Meier assay were employed for all the genes independently by using all 11 available neuroblastoma patient databases from R2.
For functional annotation, differentially expressed genes were submitted to online Database for Annotation, Visualization and Integrated Discovery (DAVID) website. The Analyses in DAVID were performed using the default parameters.

N-Myc = N-Myc mRNA and protein levels (qPCR, western blot); conditions: SK-N-BE(2) cells, 1 μM NEN
Method: Protein extraction and immunoblot. Cells were washed with ice-cold PBS buffer (Invitrogen, 20012050) and lysed with harvest buffer (10 mM Hepes pH 7.9, 50 mM NaCl, 500 mM sucrose, 0.1 mM EDTA and 0.5% Trition X-100) supplemented with 1% Halt inhibitors (Thermo Scientific™, 78443) for 10 minutes. Cell lysate was centrifuged at 3000 rpm for 3 min at 4° C. The supernatant containing cytosolic proteins was transferred to a different tube. The pellet containing nuclear proteins was dissolved with nuclear lysis buffer (10 mM Hepes pH 7.9, 0.5M NaCl, 0.1 mM EDTA, 0.1 mM EGTA and 0.1% NP40) supplemented with 1% Halt inhibitors (Thermo Scientific™, 78443) for 5 minutes at 4° C. Then the solution was sonicated at 4° C. for 6 cycles (1 cycle=30 s sonication and 30 s cooldown with “High” energy intensity) using a Bioruptor® Plus sonication (Diagenode, UCD-300). After sonication, the solution was centrifuged at 15,000 rpm for 10 minutes. The supernatant was kept as nuclear extraction. Protein concentration was determined by BCA assay (Thermo Scientific, 23227). […] Signals were detected with an ECL kit (Thermo Scientific™, 34577) by using BioRad Universal Hood II. […] Quantitative PCR amplification was performed on the Prism 7900 Sequence Detection System (Applied Biosystems) using Taqman Gene Expression Assays (Applied Biosystems). […]

SK-N-BE(2) cells [2] = assay: Proliferation after hypoxia pretreatment and replating; conditions: 1 μM NEN under hypoxia 4 days, replated under normoxia, counted after 5 days
Method: Cell proliferation and clonogenic assay. 2×10^4 cells were seeded in 12 well-plate and allowed to attached overnight. Then the cells were treated with various conditions as indicated for 48 h or 96 h (n=3). After treatment, cells were counted using hemocytometer.

SK-N-BE(2) cells [3] = assay: Methylated DNA Immunoprecipitation (MeDIP)-qRT-PCR; conditions: 1 μM NEN 5 h
Method: Methylated DNA Immunoprecipitation. 5×10^5 SK-N-BE(2) cells were plated in 60 mm dishes. […] After treatment, the cells were collected for DNA extraction as described above. 10 μg genomic DNA was sheared using a Bioruptor® Plus sonicator (Diagenode, UCD-300) to 550 bp fragments according to the instrument manual. Agarose electrophoresis was employed to examine the sizes of DNA fragments. The sonicated DNA samples were denatured at 95° C. for 15 minutes, then kept on ice immediately for at least 5 minutes. 200 ng denatured DNA was transferred to a new tube for input control and diluted with EDTA-free TE buffer to 100 μl total volume. For each pulldown reaction, transfer 600 ng of denatured DNA solution to new tubes and add EDTA-free TE buffer to 300 μl total volume. Add 2 μl antibody (5-mc or IgG control) and 20 μl prewashed Dynabeads™ Protein A (Invitrogen™, 10001 D) into the tubes and incubate the samples at 4° C. for 60 minutes with rotation. After incubation, place the tubes in magnetic rack for 30 s to allow the beads separate from solution. Remove the solution carefully without disturbing the beads. Wash the beads for 4 times by IP buffer (0.01% SDS, 1% Triton X-100, 2 mM EDTA, 20 mM Tris-HCl pH 8.1, 150 mM NaCl). DNA was eluted by resuspending the beads in 100 μl of digestion buffer (10 mM Tris pH 8.0, 1 mM EDTA, 1% SDS, 1 μg/μl proteinase K) and incubated for 6 hr at 65° C. […]

[4] = GSEA against gene sets from 11 neuroblastoma datasets of the R2 database
[5] = SK-N-BE(2), NEN 16 h, DAVID analysis
[6] = SK-N-BE(2), NEN 16 h, sleuth q-value<0.05, b>abs(ln(2))
[7] = SK-N-BE(2), RNA-seq, validated by RT-qPCR

## O=C(Nc1ccc([N+](=O)[O-])cc1Cl)c1cc(Cl)ccc1O [NEN, 5-chloro-N-(2-chloro-4-nitrophenyl)-2-hydroxybenzamide compound with 2-aminoethanol (1:1)]
SK-N-BE(2) cells [1]; [4]
  enrichment of NEN-downregulated genes in patient prognosis gene sets: enriched in unfavorable prognosis gene sets
  enrichment of NEN-upregulated genes in patient prognosis gene sets: enriched in all the favorable prognosis gene sets except one
SK-N-BE(2) cells [1]; SK-N-BE(2), 1 μM NEN + 1 μM 13-cis-RA 16 hrs, validated by qRT-PCR
  genes expression in RAR signaling induced by RA: significantly enhanced
SK-N-BE(2) cells [1]; SK-N-BE(2), NEN 16 h
  p53 pathway gene expression (GSEA): significantly increased
SK-N-BE(2) cells [1]; [5]
  pathways enriched in NEN-downregulated genes: DNA replication and cell cycle progression
  pathways enriched in upregulated genes: neurogenesis, nervous system development and neuron differentiation
SK-N-BE(2) cells [1]; [6]
  number of genes downregulated: 224
  number of genes significantly upregulated: 495
SK-N-BE(2) cells [1]; SK-N-BE(2), NEN 16 h vs CTRL
  cell division-related genes (GSEA hallmarks E2F-TARGETS, G2M_CHECKPOINT): downregulation
  expression of N-Myc targeted genes (GSEA MYC_TARGETS_V1, V2): reduced
SK-N-BE(2) cells [1]; [7]
  expression of canonical Wnt/β-catenin target genes: reduced
  gene expression of inhibitor of Wnt/β-catenin pathway including TP53: upregulated
N-Myc
  mRNA level of N-Myc: significantly reduced
  protein level of N-Myc: significantly reduced
SK-N-BE(2) cells [2]
  gain of proliferation advantage from hypoxia pretreatment: blocked
SK-N-BE(2) cells [3]
  methylation on promoter region of genes in RAR signaling: reduced
